This is an account of results in article PMC10161675, “Study on the absolute configuration and biological activity of rotenoids from the leaves and twigs of Millettia pyrrhocarpa Mattapha, Forest & Hawkins, sp. Nov” (BMC Complementary Medicine and Therapies, 2023).

The test system of series [1] is E. coli O157: H7 DMST 12743. The experiment in a line: Antibacterial activity (MIC/MBC). It counts as cell-based. The following applies: Escherichia coli; for MBC: read-out: Concentration of MBC; for MIC: read-out: Concentration of MIC. The protocol:
(§1) The study on in vitro antibacterial activity was carried out against nine strains (S. aureus ATCC 25923 DMST 8840, E. aerogenes ATCC13048 DMST 8841, E. coli O157: H7 DMST 12743, E. coli Enterotoxigenic, ETEC DMST 30543, E. coli Enteropathogenic, EPEC DMST 30546, S. typhimurium ATCC 13311 DMST 562, S. flexneri DMST 4423, P. mirabilis DMST 8212, and V. cholera nonO1/nonO139 DMST 2873).

The subject of series [2] is E. aerogenes ATCC13048 DMST 8841. The experiment in a line: microbe, parasite or virus in culture. It counts as cell-based. To be noted: Klebsiella aerogenes; for MBC: read-out: Concentration of MBC; for MIC: read-out: Concentration of MIC. The protocol: as §1
Series [3] relates to E. coli Enteropathogenic, EPEC DMST 30546. The experiment in a line: microbe, parasite or virus in culture. The format is cell-based. The following applies: Escherichia coli; for MBC: read-out: Concentration of MBC. The protocol: as §1
In series [4] the test system is E. coli Enterotoxigenic, ETEC DMST 30543. The experiment in a line: microbe, parasite or virus in culture. It counts as cell-based. To be noted: Escherichia coli; for MBC: read-out: Concentration of MBC. The protocol: as §1
For series [5], the system named is P. mirabilis DMST 8212. The experiment in a line: microbe, parasite or virus in culture. It counts as cell-based. The following applies: Proteus mirabilis; for MBC: DMST8212, read-out: Concentration of MBC; for MIC: DMST8212, read-out: Concentration of MIC. Here is the method: as §1
Series [6] concerns S. aureus ATCC 25923 DMST 8840. The experiment in a line: microbe, parasite or virus in culture. It counts as cell-based. The following applies: Staphylococcus aureus; for MBC: ATCC25923, read-out: Concentration of MBC; for MIC: ATCC25923, read-out: Concentration of MIC. The protocol: as §1
Series [7] concerns S. flexneri DMST 4423. The experiment in a line: microbe, parasite or virus in culture. The format is cell-based. To be noted: Shigella flexneri; for MBC: DMST4423, read-out: Concentration of MBC; for MIC: DMST4423, read-out: Concentration of MIC. The protocol:
as §1

Series [8] deals with S. typhimurium ATCC 13311 DMST 562. The experiment in a line: microbe, parasite or virus in culture. It counts as cell-based. To be noted: Salmonella enterica; for MBC: read-out: Concentration of MBC; for MIC: read-out: Concentration of MIC. Here is the method:
as §1

Series [9] deals with V. cholera nonO1/nonO139 DMST 2873. The experiment in a line: Antibacterial activity (MIC/MBC). It counts as cell-based, V. cholerae. The following applies: Vibrio cholerae; for MBC: read-out: Concentration of MBC; for MIC: read-out: Concentration of MIC. Here is the method:
as §1

Series [10] deals with T1, HIV-1 RT (Human immunodeficiency virus type 1 group M subtype B, UniProt P04585).
T1 construct: For determination of IC50 in the HIV-1 RT assay
The experiment in a line: Anti-HIV1-RT assay. It counts as biochemical. The following applies: read-out: Anti-HIV-1 RT (% Inhibition). Here is the method:
(§2) Anti-HIV1-RT assays of the crude extracts and isolated compounds were evaluated according to the standard methods described in previous literature. Cell-based assays for anti-HIV-1 RT of the crude extracts and isolated compounds were evaluated according to the standard methods described in previous literature

In series [11] the test system is ΔTat/RevMC99 virus in 1A2 cells. The experiment in a line: Anti-syncytium (MC99 + 1A2) cell-based assay for anti-HIV-1. To be noted: Human immunodeficiency virus 1, 1A2, read-out: Anti-syncytium (MC99+1A2) EC50. Here is the method:
as §2
Fig. 4 Anti-syncytium MC99 + 1A2 of crude extracts and pure compounds from leaves and twigs of M. Pyrrhocarpa. ^bAnti-syncytium (MC99 + 1A2) EC50 = dose of compound that reduced 50% syncytium formation by ΔTat/RevMC99 virus in 1A2 cells.

Series [12] concerns A 549 (Human lung adenocarcinoma). The experiment in a line: Cytotoxicity assay. It counts as cell-based. To be noted: A549. From the text:
(§3) Cells line materials KKU-M213 (human cholangiocarcinoma) cells were kindly provided by Dr. Banchob Sripa from Liver Fluke and Cholangiocarcinoma Research Center, Department of Pathology, Faculty of Medicine, Khon Kean University. MMNK1 (human cholangiocyte) cells were obtained from the Japanese Collection of Research Bioresources Cell Bank (JCRB, Osaka, Japan). FaDu (human hypopharyngeal carcinoma), HT29 (human colorectal adenocarcinoma), MDA-MB-231 (human mammary gland/breast adenocarcinoma), SH-SY5Y (human neuroblastoma), A549 (human lung carcinoma), and HepG2 (human hepatocellular carcinoma) cell lines were obtained from the American Type Culture Collection (ATCC, Manassas, VA, USA).
(§4) Cytotoxicity assays of the crude extracts and isolated compounds were evaluated according to the standard methods described in previous literature.

The subject of series [13] is Hep G2 (Human hepatocellular carcinoma). The experiment in a line: Cytotoxicity assay. It counts as cell-based. To be noted: listed as 6aS, 12aS, 12S-elliptinol (1).
Text: as §3, §4

SMILES strings stand for the structures. Converted amounts (≈) assume the structure as drawn.

For `O=C(N[C@H](CO)[C@H](O)c1ccc([N+](=O)[O-])cc1)C(Cl)Cl` [Chloramphenicol, reference compound], the MBC stood at 125 µg/mL (≈ 0.387 mM) in series [1]; 125 µg/mL (≈ 0.387 mM) in [2]; 31.2 µg/mL (≈ 0.0966 mM) in [5]; 125 µg/mL (≈ 0.387 mM) in [6]; 125 µg/mL (≈ 0.387 mM) in series [7]; 125 µg/mL (≈ 0.387 mM) in series [8]. The MBC in series [9] stood at 125 µg/mL (≈ 0.387 mM). Also, the MIC in [1], in [2], in [3] (read-out: Concentration of MIC), in [4] (read-out: Concentration of MIC), in [5] and in series [6] was below 30 µg/mL each time. Moreover, the MIC is below 30 µg/mL in series [7], below 35 µg/mL in [8] and below 30 µg/mL in [9].
By inhibition is commonly meant the drop in the measured response relative to a control, in per cent. In general, EC50 refers to the concentration needed to bring the measured effect to its halfway point. For `COc1cc2c(cc1OC)[C@H]1[C@H](O)c3ccc4occc4c3O[C@@H]1CO2` [Compound 1, 6aS, 12aS, 12S-elliptinol], the MBC in series [1], in [2], in series [3], in series [4], in series [5] and in series [6] was above 3000 µg/mL each time. The MBC in [7], in series [8] and in series [9] was above 3000 µg/mL each time. Moreover, the MIC in [1], in series [2], in series [5], in [6], in series [7] and in series [8] was 3000 µg/mL (≈ 8.47 mM) throughout. The MIC in [9] turned out to be 3000 µg/mL (≈ 8.47 mM). In [10], the inhibition at 200 µg/mL was 0.03%. Moreover, in [11], the EC50 worked out at 4.48 µM. Further, the “cytotoxicity ED50” value is given as 2.27 µg/mL in series [12] and 3.97 µg/mL in series [13].
What is called melting point is the temperature of the solid-liquid transition. `COc1ccc2c(c1)O[C@@H]1COc3cc(OC)c(OC)cc3[C@H]1[C@@H]2O` [Compound 2, 6aS, 12aS, 12S-munduserol]: the melting point is 240 to 241 °C. Besides, in series [1], the MBC was above 3000 µg/mL and the MIC came out at 3000 µg/mL (≈ 8.71 mM). Also, in series [2], the MBC was above 3000 µg/mL and the MIC was 3000 µg/mL (≈ 8.71 mM). The MBC in series [3] was above 3000 µg/mL. In addition, the MBC in series [4] was above 3000 µg/mL. Moreover, in [5], the MBC is above 3000 µg/mL and the MIC stood at 3000 µg/mL (≈ 8.71 mM). Also, in series [6], the MBC was above 3000 µg/mL and the MIC worked out at 3000 µg/mL (≈ 8.71 mM). In addition, in series [7], the MBC was above 3000 µg/mL and the MIC stood at 3000 µg/mL (≈ 8.71 mM). Also, in series [8], the MBC was above 3000 µg/mL and the MIC was found to be 3000 µg/mL (≈ 8.71 mM). Besides, in series [9], the MBC was above 3000 µg/mL and the MIC came out at 3000 µg/mL (≈ 8.71 mM). Also, the inhibition at 200 µg/mL in [10] amounted to 8.98%. In addition, the EC50 in series [11] stood at 4.99 µM.
In turn, `COc1ccc2c(=O)c3c(oc2c1)COc1cc(OC)c(OC)cc1-3` [Compound 3, dehydromunduserone] registered a melting point of 202 to 204 °C. In series [1], the MBC is above 3000 µg/mL and the MIC came out at 3000 µg/mL (≈ 8.81 mM). Moreover, in series [2], the MBC was above 3000 µg/mL and the MIC was 3000 µg/mL (≈ 8.81 mM). Further, the MBC in series [3] was above 3000 µg/mL. In addition, in series [4], the MBC is above 3000 µg/mL. In [5], the MBC is above 3000 µg/mL and the MIC came out at 3000 µg/mL (≈ 8.81 mM). In series [6], the MBC was above 3000 µg/mL and the MIC is 3000 µg/mL (≈ 8.81 mM). Moreover, in series [7], the MBC is above 3000 µg/mL and the MIC was determined as 3000 µg/mL (≈ 8.81 mM). Besides, in series [8], the MBC was above 3000 µg/mL and the MIC is 3000 µg/mL (≈ 8.81 mM). In series [9], the MBC was above 3000 µg/mL and the MIC was determined as 3000 µg/mL (≈ 8.81 mM). In addition, the inhibition at 200 µg/mL in series [10] was found to be 0%. Further, in series [11], the EC50 turned out to be 91 µM.
